Experimental data published in patent EP3057951B1, “METHYLENE LINKED QUINOLINYL MODULATORS OF ROR-GAMMA-T” (Janssen Pharmaceutica NV, priority 2013, dated 2015).
Structures can show the parent of a compound that is named as a salt. Where two headings read alike, the source gives them in different places.

What was measured:
[1] = molecular target: T1, wild type human RORγt ligand binding domain (RORyt LBD) (Homo sapiens, UniProt P51449); assay: RORγt ThermoFluor assay (thermal shift, binding affinity KD)
T1 construct: His-tag (N); TurboTEV protease cleavage site (ENLYFQG) (N); made in house; host or cells: E. coli (pHIS1, modified pET vector)
T1 sequence (P51449 258-518): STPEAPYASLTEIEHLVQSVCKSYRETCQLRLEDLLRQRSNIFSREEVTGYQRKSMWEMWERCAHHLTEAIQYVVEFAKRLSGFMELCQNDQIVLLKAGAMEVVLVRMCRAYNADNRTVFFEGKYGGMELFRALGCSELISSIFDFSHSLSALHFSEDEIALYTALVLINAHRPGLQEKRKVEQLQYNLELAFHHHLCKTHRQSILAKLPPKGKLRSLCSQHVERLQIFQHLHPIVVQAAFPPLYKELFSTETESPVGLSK

[2] = molecular target: T2, wild type human RORγt LBD (Homo sapiens, UniProt P51449); assay: RORγt (LBD) Reporter Assay (GAL4-luciferase, HEK293T cells); format: cell-based; conditions: for inhibition at 6 µM: HEK-293T, read-out: RORγt (LBD) Reporter Assay, % inhibition @ 6 µM, 6 µM compound concentration; for RORγt (LBD) Reporter Assay, % inhibition @ 6 µM: 6 µM compound concentration
T2 construct: expressed in transfected cells; host or cells: HEK293T
T2 sequence (P51449 258-518): T1 sequence (P51449 258-518)

[3] = HEK293T cells, value after the comma with ∼, > or < could not be included in the average

Row | Structure (SMILES) | Kd [1] | IC50 [2, 3] | inhibition at 6 µM [2] | RORγt (LBD) Reporter Assay, % inhibition @ 6 µM [2] | IC50 ([2]; HEK293T cells) | inhibition at 6 µM ([2]; HEK293T cells) | RORγt (LBD) Reporter Assay, % inhibition @ 6 µM ([2]; HEK293T cells)
1 | COc1nc2ccc(C(O)(c3ccccc3)C3CCN(C(C)=O)CC3)cc2c(Cl)c1Cc1ccc(-n2cncn2)cc1 (stereo not drawn) [Example 18a, 1-(4-((3-(4-(1H-1,2,4-Triazol-1-yl)benzyl)4-chloro-2-methoxyquinolin-6-yl)(hydroxy)(phenyl)methyl)piperidin-1-yl)ethanone] | 14 nM | 46 nM | 99% | – | – | – | –
2 | CC(=O)N1CCC(C(O)(c2ccccc2)c2ccc3nc(C)c(Cc4ccc(C(F)(F)F)cc4)c(Cl)c3c2)CC1 (stereo not drawn) [Example 27a, 1-(4-((4-Chloro-2-methyl-3-(4-(trifluoromethyl)benzyl)quinolin-6-yl)(hydroxy)(phenyl)methyl)piperidin-1-yl)ethanone] | 1.4 nM | 4.4 nM | 101% | – | – | – | –
3 | COc1c(Cc2ccccc2)c(C(F)(F)F)nc2ccc(C(O)(c3ccccn3)c3cncn3C)cc12 (single isomer, unassigned) [Example 98c, (3-Benzyl-4-methoxy-2-(trifluoromethyl)quinolin-6-yl)(1-methyl-1H-imidazol-5-yl)(pyridin-2-yl)methanol] | 380 nM | 420 nM | – | 96% | – | – | –
4 | COC1CN(c2nc3ccc(C(O)(c4ccc(C(F)(F)F)nc4)c4cncn4C)cc3c(Cl)c2Cc2ccc(-n3cccn3)cc2)C1 (single isomer, unassigned) [Example 133b, {4-Chloro-2-(3-methoxyazetidin-1-yl)-3-[4-(1H-pyrazol-1-yl)benzyl]quinolin-6-yl}(1-methyl-1H-imidazol-5-yl)[6-(trifluoromethyl)pyridin-3-yl]methanol] | 330 nM | – | – | – | 840 nM | 99% | –
5 | Cc1cc(C(O)(c2ccnc(C(F)(F)F)c2)c2cncn2C)cc2c(C#N)c(Cc3ccc(-n4cccn4)cc3)c(C#N)nc12 (single isomer, unassigned) [Example 83c, 3-(4-(1H-Pyrazol-1-yl)benzyl)-6-(hydroxy(1-methyl-1H-imidazol-5-yl)(2-(trifluoromethyl)pyridin-4-yl)methyl)-8-methylquinoline-2,4-dicarbonitrile] | 450 nM | 1500 nM | – | 100% | – | – | –
6 | COc1nc2ccc(C(O)(c3cnnn3C)c3cnc(C)n3C)cc2c(Cl)c1Cc1ccc(C(F)(F)F)nc1 (single isomer, unassigned) [Example 43c, (4-Chloro-2-methoxy-3-((6-(trifluoromethyl)pyridin-3-yl)methyl)quinolin-6-yl)(1,2-dimethyl-1H-imidazol-5-yl)(1-methyl-1H-1,2,3-triazol-5-yl)methanol] | 0.96 nM | 5.3 nM | – | 99% | – | – | –
7 | Cn1cncc1C(O)(c1ccc2nc(C(F)(F)F)c(Cc3ccccc3)c(C#N)c2c1)c1ccccn1 (single isomer, unassigned) [Example 99b, 3-Benzyl-6-(hydroxy(1-methyl-1H-imidazol-5-yl)(pyridin-2-yl)methyl)-2-(trifluoromethyl)quinoline-4-carbonitrile] | 810 nM | ~2000 nM | 86% | – | – | – | –
8 | COc1nc2ccc(C(O)(c3cnnn3C)c3cnc(C)n3C)cc2c(Cl)c1Cc1ccc(C(F)(F)F)nc1 (stereo not drawn) [Example 43a, (4-Chloro-2-methoxy-3-((6-(trifluoromethyl)pyridin-3-yl)methyl)quinolin-6-yl)(1,2-dimethyl-1H-imidazol-5-yl)(1-methyl-1H-1,2,3-triazol-5-yl)methanol] | 1 nM | 7.9 nM | 98% | – | – | – | –
9 | COc1nc2ccc(C(O)(c3cnc(C)n3C)c3cnc(C)n3C)cc2c(C#N)c1Cc1ccccc1C(F)(F)F [Example 10, 6-(bis(1,2-Dimethyl-1H-imidazol-5-yl)(hydroxy)methyl)-2-methoxy-3-(2-(trifluoromethyl)benzyl)quinoline-4-carbonitrile•TFA] | 0.17 nM | – | – | – | – | – | –
10 | Cc1nc2ccc(C(O)(c3cnnn3C)c3cnc(C)n3C)cc2c(Cl)c1Cc1ccc(C(F)(F)F)cc1 (single isomer, unassigned) [Example 29b, (4-Chloro-2-methyl-3-(4-(trifluoromethyl)benzyl)quinolin-6-yl)(1,2-dimethyl-1H-imidazol-5-yl)(1-methyl-1H-1,2,3-triazol-5-yl)methanol] | 0.04 nM | – | – | – | – | – | –
11 | COc1nc2ccc(C(O)(c3cnc(C)n3C)C3CCOCC3)cc2c(Cl)c1Cc1ccc(C(F)(F)F)cc1 (single isomer, unassigned) [Example 86c, (4-Chloro-2-methoxy-3-(4-(trifluoromethyl)benzyl)quinolin-6-yl)(1,2-dimethyl-1H-imidazol-5-yl)(tetrahydro-2H-pyran-4-yl)methanol] | 0.06 nM | – | – | – | – | – | –
12 | CCc1nc2ccc(C(O)(c3cnc(C)n3C)C3CCOCC3)cc2c(Cl)c1Cc1ccc(C(F)(F)F)cc1 (single isomer, unassigned) [Example 34c, (4-Chloro-2-ethyl-3-(4-(trifluoromethyl)benzyl)quinolin-6-yl)(1,2-dimethyl-1H-imidazol-5-yl)(tetrahydro-2H-pyran-4-yl)methanol] | 6.8 nM | – | – | – | – | – | –

The remaining compounds from weak to strong by Kd [1], led by results:

Row | Kd [1] | IC50 [2, 3] | inhibition at 6 µM [2] | RORγt (LBD) Reporter Assay, % inhibition @ 6 µM [2] | IC50 ([2]; HEK293T cells) | inhibition at 6 µM ([2]; HEK293T cells) | RORγt (LBD) Reporter Assay, % inhibition @ 6 µM ([2]; HEK293T cells) | Structure (SMILES)
13 | 2000 nM | 2800 nM | 79% | – | – | – | – | COc1nc2ccc(C(O)(c3sc(C)nc3C)c3cnnn3C)cc2cc1Cc1ccc(C(F)(F)F)cc1 (single isomer, unassigned) [Example 92b, (2,4-Dimethylthiazol-5-yl)(2-methoxy-3-(4-(trifluoromethyl)benzyl)quinolin-6-yl)(1-methyl-1H-1,2,3-triazol-5-yl)methanol]
14 | 1300 nM | – | – | – | ~4000 nM | 88% | – | COc1nc2ccc(C(O)(c3ccc(C)nc3C)c3cnnn3C)cc2c(Cl)c1Cc1ccc(S(C)(=O)=O)cc1 (single isomer, unassigned) [Example 117b, (4-Chloro-2-methoxy-3-(4-(methylsulfonyl)benzyl)quinolin-6-yl)(2,6-dimethylpyridin-3-yl)(1-methyl-1H-1,2,3-triazol-5-yl)methanol]
15 | 280 nM | – | – | – | 160 nM | 108% | – | COc1nc2ccc(C(O)(c3cccnc3)c3ccc(Cl)c(Cl)c3)cc2c(Cl)c1Cc1ccc(-n2cccn2)cc1 (single isomer, unassigned) [Example 161b, (3-(4-(1H-Pyrazol-1-yl)benzyl)-4-chloro-2-methoxyquinolin-6-yl)(3,4-dichlorophenyl)(pyridin-3-yl)methanol]
16 | 220 nM | – | – | – | 1600 nM | – | 100% | COc1nc2ccc(C(O)(c3ncccn3)c3cncn3C)cc2c(Cl)c1Cc1ccc(-n2cccn2)cc1 (single isomer, unassigned) [Example 131c, {4-Chloro-2-methoxy-3-[4-(1H-pyrazol-1-yl)benzyl]quinolin-6-yl}(1-methyl-1H-imidazol-5-yl)pyrimidin-2-ylmethanol]
17 | 180 nM | 210 nM | 103% | – | – | – | – | COc1nc2ccc(C(O)(c3cc(C)nc(C)c3)c3cnnn3C)cc2c(Cl)c1Cc1ccc(C(F)(F)F)cc1 (single isomer, unassigned) [Example 84b, (4-Chloro-2-methoxy-3-(4-(trifluoromethyl)benzyl)quinolin-6-yl)(2,6-dimethylpyridin-4-yl)(1-methyl-1H-1,2,3-triazol-5-yl)methanol]
18 | 82 nM | 200 nM | 94% | – | – | – | – | CCc1nc2ccc(C(O)(c3ccc(C)nc3C)c3cnnn3C)cc2c(Cl)c1Cc1ccc(C(F)(F)F)cc1 (single isomer, unassigned) [Example 23b, (4-Chloro-2-ethyl-3-(4-(trifluoromethyl)benzyl)quinolin-6-yl)(2,6-dimethylpyridin-3-yl)(1-methyl-1H-1,2,3-triazol-5-yl)methanol]
19 | 6.8 nM | – | – | – | – | – | – | COc1nc2ccc(C(O)(c3ccc(C(F)(F)F)nc3)c3cnnn3C)cc2c(Cl)c1Cc1ccc(C(F)(F)F)cc1 (single isomer, unassigned) [Example 75b, (4-Chloro-2-methoxy-3-(4-(trifluoromethyl)benzyl)quinolin-6-yl)(1-methyl-1H-1,2,3-triazol-5-yl)(6-(trifluoromethyl)pyridin-3-yl)methanol]
20 | 6.4 nM | 5.9 nM | – | 99% | – | – | – | COc1nc2ccc(C(O)(c3ccc(C)nc3C)c3cnnn3C)cc2c(C#N)c1Cc1ccc(C(F)(F)F)nc1 (single isomer, unassigned) [Example 41c, 6-((2,6-Dimethylpyridin-3-yl)(hydroxy)(1-methyl-1H-1,2,3-triazol-5-yl)methyl)-2-methoxy-3-((6-(trifluoromethyl)pyridin-3-yl)methyl)quinoline-4-carbonitrile]
21 | 0.73 nM | 13 nM | 100% | – | – | – | – | COc1nc2ccc(C(O)(c3ccc(C)nc3C)C3CN(C(C)=O)C3)cc2c(Cl)c1Cc1ccc(C(F)(F)F)cc1 (single isomer, unassigned) [Example 87b, 1-(3-((4-Chloro-2-methoxy-3-(4-(trifluoromethyl)benzyl)quinolin-6-yl)(2,6-dimethylpyridin-3-yl)(hydroxy)methyl)azetidin-1-yl)ethanone]
22 | 0.08 nM | – | – | – | – | – | – | CCc1nc2ccc(C(O)(c3cnnn3C)C3CCOCC3)cc2c(Cl)c1Cc1ccc(C(F)(F)F)cc1 (single isomer, unassigned) [Example 33b, (4-Chloro-2-ethyl-3-(4-(trifluoromethyl)benzyl)quinolin-6-yl)(1-methyl-1H-1,2,3-triazol-5-yl)(tetrahydro-2H-pyran-4-yl)methanol]
